Reference: patent publication US20230133251A1, “ADMINISTRATION OF mTOR INHIBITORS INTO THE CENTRAL NERVOUS SYSTEM” (priority 2020, published 2023)

How the values were obtained:
[1] = test system: HeLa cells; assay: MTT proliferation assay, activity of stored everolimus samples; type: cell-based; conditions: for day of drastic decrease in anti-proliferative activity: tested at 5 nM
Procedure: (§1) Both HeLa cells (cervical cancer cell line) and SH-SY5Y cells (neuroblastoma cell line) were obtained from the American Type Culture Collection (Manassas, Va., USA) and cultured in Dulbecco's Modified Eagle's medium (DMEM with L-glutamine) supplemented with 10% (v/v) heat-inactivated foetal bovine serum (FBS), 100 U of penicillin, 100 U of streptomycin in a 5% CO2 humidified incubator at 37° C. Cell viability was verified with the standard Trypan Blue method.
(§2) The activity of everolimus in organic solution and in the micelles was determined by evaluating cell proliferation after the treatment. Briefly, the HeLa and SH-SY5Y cells were seeded in a 96-well plate at a concentration of 3000 cells/well and 6000 cells/well, respectively, and were maintained in the culture medium (100 μl) for 24 hours. After incubation at 37, 25 and 4° C. for 7, 14, 35, 50 and 77 days, the samples were suspended in the cell culture medium at a final concentration of 5 nM. Untreated cells, cells treated with a 10% v/v DMSO/saline solution (Veh) and empty micelles in saline solution, both diluted in a manner equivalent to the drug, were analysed as controls. A freshly prepared everolimus solution was used as the reference standard. Cell proliferation was evaluated using the 3-[4,5-dimethylthiazol-2-yl]-2,5-diphenyltetrazolium (MTT) assay (Sigma-Aldrich) according to the manufacturer's manual. The cells were mixed with 10 μl of MTT (0.5 mg/ml) and kept in a humidified incubator at 37° C. for 4 hours. Subsequently, 100 μl of a solubilisation solution (10% SDS with 0.01 N HCl) were added to each well. Formazan crystal solubilisation was carried out overnight in an incubator a 37° C. The next day, cell proliferation was evaluated by means of spectrophotometric readings taken with a Beckman Coulter DTX 880 multimode detector (Beckman Coulter Inc., Brea, Calif., USA) using a line at 589 nm and reference at 650 nm.
(§3) In order to correlate the stability of everolimus with the preservation of activity, samples incubated under the same conditions as in the stability study were dosed in HeLa and SH-SY5Y cells at established points in time. For this test the cell lines were seeded and maintained for 24 hours at 37° C. prior to treatment. […] The activity of the solution, by contrast, began to wane at 35 days, confirming a prolonged effect of inhibition of the micelles on cell proliferation. […] In order to better quantify the differences among the various samples in terms of the residual activity of everolimus, the residual anti-proliferative activity was calculated and is shown in FIGS. 3A and 3B.

[2] = test system: SH-SY5Y cells; assay: as above; type: cell-based; conditions: for day of drastic decrease in anti-proliferative activity: tested at 5 nM
Procedure: as §1, §2, §3

[3] = Evaluation of stability by HPLC analysis of everolimus samples stored at 37, 25 and 4° C.; type: physicochemical
Procedure: Everolimus (Selleck Chemicals, Aurogene, Rome, Italy) was dissolved in DMSO (VWR, Milan, Italy) at a concentration of 1 mg/ml. The everolimus solution was subsequently diluted in 10% v/v DMSO/saline solution until obtaining a final concentration of 10 μg/ml. The resulting solution was then incubated at 4, 25 and 37° C.
Carefully weighed amounts of everolimus and distearoylphosphoethanolam ine-polyethylene glycol 2000 (DSPE-PEG2000, Lipoid, Switzerland) were dissolved in 3 ml of chloroform (Sigma-Aldrich, Milan, Italy) in a 50 ml flask. The solvent was removed by light evaporation at room temperature under a flow of nitrogen and vacuum dried for 1 hour to eliminate residual traces. The thin film obtained was reconstituted in an exact volume (3 mL) of aqueous medium. After complete reconstitution a clear micellar dispersion was obtained. The dispersion was then incubated at 4, 25 and 37° C.
The drug was quantified using the HPLC method. Briefly, the instrument used is a Portlab STAYER HPLC system equipped with a UV detector, a parallel pump and Triathlon autosampler (Portlab, Rome, Italy). The conditions used are the following: isocratic mode with acetonitrile:water (60:40, v/v) eluted at 0.8 ml/min and a Zorbax C8 column, 4.6 mm ID×250 mm, 5 μm (Agilent, Milan, Italy) equilibrated at 55° C. UV detection was performed at 278 nm. A calibration curve was constructed in the concentration interval of 0.62-10 μg/mL (r^2=0.9992).
The samples of solution were injected directly (injection volume 15 μL), whereas the micellar suspension was diluted 200 times in DMSO before being subjected to analysis. In order to reduce the carryover effects and an excessive accumulation of lipids in the column, samples of solution and micelles were injected alternately. The column was periodically washed with chloroform and methanol to avoid the accumulation of lipids and impairment of performance. All measurements were performed in triplicate and the results were expressed as the mean±D.S.

Structure (SMILES): CO[C@H]1C[C@@H]2CC[C@@H](C)[C@@](O)(O2)C(=O)C(=O)N2CCCC[C@H]2C(=O)O[C@H]([C@H](C)C[C@@H]2CC[C@@H](OCCO)[C@H](OC)C2)CC(=O)[C@H](C)/C=C(\C)[C@@H](O)[C@@H](OC)C(=O)[C@H](C)C[C@H](C)/C=C/C=C/C=C/1C [solution, Everolimus]
- day at which activity began to wane ([1]; 5 nM): 35 days
- day of drastic decrease in anti-proliferative activity ([1]; sample stored at 4° C.): 50 days
- day of drastic decrease in anti-proliferative activity ([1]; sample stored at 25° C.): 35 days
- day of drastic decrease in anti-proliferative activity ([1]; sample stored at 37° C.): 14 days
- day at which activity began to wane ([2]; 5 nM): 35 days
- day of drastic decrease in anti-proliferative activity ([2]; sample stored at 4° C.): 50 days
- day of drastic decrease in anti-proliferative activity ([2]; sample stored at 25° C.): 35 days
- day of drastic decrease in anti-proliferative activity ([2]; sample stored at 37° C.): 14 days
- day by which everolimus had decayed (HPLC) ([3]; stored at 4° C.): ≤ 50 days
- day by which everolimus had decayed (HPLC) ([3]; stored at 25° C.): ≤ 35 days
- day by which everolimus had fallen to zero / decayed (HPLC) ([3]; stored at 37° C.): ≤ 14 days
